For one assay, the system named is trypsin. The assay is described as follows: Peptidase (amidolytic) activity of purified trypsin, chromogenic substrate, OD 405 nm. The assay is classed as biochemical. The note with it: Table 2; trypsin 16 nM, substrate AGLTR-pNA; 60 min at 4° C. with LBTI 1 mg/ml, SBTI I mg/ml, aprotinin 0.075 mg/ml, benzamidine 50 mM or Futhan 0.1 mg/ml. The procedure:
(§1) The peptidase activity in plasma samples or of the purified enzymes were routinely determined at 37° C. in a 96-well plate. Each well contained 0.5 mM substrate in 100 μl of Tris-buffered saline (TBS)-EDTA buffer (50 mM Tris/150 mM NaCl/10 mM EDTA, pH 7.8) and the reaction was monitored using a microplate reader (Titertek Multiscan, Labsystems, Needham Heights, Mass.).
(§2) The enzymes C1s (100 nM), plasm in (100 nM), thrombin (100 nM), plasma kallikrein (20 nM), β-FXIIa (100 nM), trypsin (16 nM) or LTR EDTA plasma samples were incubated for 60 min at 4° C. with TBS-EDTA buffer containing either LBTI (1 mg/ml), SBTI (I mg/ml), aprotinin (0.075 mg/ml), benzamidine (50 mM), or Futhan (0.1 mg/ml), before mixing with the substrate. EDTA plasma samples from LTR were diluted 10 or 20-fold with TBS-EDTA. The chromogenic substrate AGLTR-pNA was used for all enzymes and LTR samples except C1s where the substrate S2288 was used. Based on the initial rate of increase in OD at 405 nm, the residual free enzyme level was calculated and expressed as a percentage of total activity without inhibitor added.

For assay [1], the system named is proteinase(s) in EDTA plasma from LTR (kallikrein-like peptidase). Nature of the assay: Peptidase activity in EDTA plasma from liver transplant recipients (LTR), chromogenic substrate, OD 405 nm. To be noted: Table 2, substrate AGLTR-pNA, 60 min at 4° C. with LBTI 1 mg/ml, SBTI I mg/ml, aprotinin 0.075 mg/ml, benzamidine 50 mM or Futhan 0.1 mg/ml; for % Residual activity, LTR 1: LTR 1 EDTA plasma diluted 10 or 20-fold; for % Residual activity, LTR 2: LTR 2 EDTA plasma diluted 10 or 20-fold; for % Residual activity, LTR 3: LTR 3 EDTA plasma diluted 10 or 20-fold. The assay is classed as biochemical, human. The procedure: Blood samples were drawn into 5 ml EDTA tubes (Venoject; Terumo Corp., Elkton, Md.). The plasma was collected immediately by centrifugation at 2,000×g for 15 min at 4° C. The plasma samples were either processed immediately for analysis or stored at −70° C. Frozen samples were thawed at 4° C. prior to analysis.
as §1, §2
(§3) Ten-fold diluted normal EDTA plasma was added to each enzyme. The enzymes C1s (100 nM), plasmin (100 nM), thrombin (100 nM), plasma kallikrein (20 nM), β-FXIIa (100 nM), trypsin (16 nM) or LTR EDTA plasma samples were incubated for 60 min at 4° C. with TBS-EDTA buffer containing either C1INH (40 μg/ml), bdellin (50 μg/ml), hirudin (50 U/ml), PPACK 11(10 μM), or CTI (100 μg/ml), before adding the substrate. LTR samples were 10 or 20-fold diluted with TBS-EDTA. The chromogenic substrate AGLTR-pNA was used for all enzymes and LTP samples except C1s where the substrate S2288 was used. Based on the initial rate of increase in OD at 405 nm, the residual free enzyme was calculated and expressed as a percentage of total activity determined without inhibitor added.

In assay [2] the test system is complement (three known pathways). To be noted: defined levels of Futhan in combination with EDTA; cited from earlier work.
Assay [3] relates to all of the enzymes examined. The assay is described as follows: General serine proteinase inhibitors on selected proteinases (summary over the enzymes). In kind it is biochemical. To be noted: Table 2; benzamidine 50 mM, Futhan 0.1 mg/ml. The procedure:
as §1, §2

A further assay deals with T1, thrombin (Homo sapiens, UniProt P00734).
T1 construct: purchased Calbiochem-Novabiochem Corp (La Jolla, Calif.)
Nature of the assay: Peptidase (amidolytic) activity of purified thrombin, chromogenic substrate, OD 405 nm. The assay is classed as biochemical. The note with it: Table 2, thrombin 100 nM, substrate AGLTR-pNA, 60 min at 4° C. with LBTI 1 mg/ml, SBTI I mg/ml, aprotinin 0.075 mg/ml, benzamidine 50 mM or Futhan 0.1 mg/ml.

The target of another assay is T2, C1s (Homo sapiens, UniProt P09871).
T2 construct: purchased Advanced Research Technologies (San Diego, Calif.)
T2 sequence (P09871 438-688 limits assumed): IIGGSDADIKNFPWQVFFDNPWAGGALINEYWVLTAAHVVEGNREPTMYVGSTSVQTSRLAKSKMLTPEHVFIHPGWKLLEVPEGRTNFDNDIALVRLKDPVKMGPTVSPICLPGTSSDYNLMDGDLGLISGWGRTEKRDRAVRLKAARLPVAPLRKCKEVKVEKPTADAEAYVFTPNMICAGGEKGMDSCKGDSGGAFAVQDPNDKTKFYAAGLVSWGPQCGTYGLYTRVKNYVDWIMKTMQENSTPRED
T2 sequence (P09871 16-437 partner limits assumed): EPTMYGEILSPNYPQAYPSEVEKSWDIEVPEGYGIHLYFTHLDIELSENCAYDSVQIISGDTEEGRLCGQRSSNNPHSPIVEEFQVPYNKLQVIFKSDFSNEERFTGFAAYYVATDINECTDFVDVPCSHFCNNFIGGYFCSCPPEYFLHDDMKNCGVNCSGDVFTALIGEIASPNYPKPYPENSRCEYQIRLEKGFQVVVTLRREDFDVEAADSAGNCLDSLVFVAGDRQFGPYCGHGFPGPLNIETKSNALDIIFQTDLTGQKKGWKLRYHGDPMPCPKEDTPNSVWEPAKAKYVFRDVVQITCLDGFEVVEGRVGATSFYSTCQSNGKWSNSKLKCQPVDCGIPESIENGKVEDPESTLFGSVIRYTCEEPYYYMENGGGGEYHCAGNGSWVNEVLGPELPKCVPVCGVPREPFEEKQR
The assay is described as follows: Peptidase (amidolytic) activity of purified C1s, chromogenic substrate, 96-well plate, OD 405 nm. The assay is classed as biochemical. To be noted: Table 2, C1s 100 nM, substrate S2288, 60 min at 4° C. with LBTI 1 mg/ml, SBTI I mg/ml, aprotinin 0.075 mg/ml, benzamidine 50 mM or Futhan 0.1 mg/ml, % of total activity without inhibitor. The procedure: as §1, §2, §3

Another assay deals with T3, plasma kallikrein (Homo sapiens, UniProt P03952).
T3 construct: The light chain of kallikrein contains the enzymatic domain; purchased Calbiochem-Novabiochem Corp (La Jolla, Calif.)
T3 sequence (P03952 391-638 limits assumed): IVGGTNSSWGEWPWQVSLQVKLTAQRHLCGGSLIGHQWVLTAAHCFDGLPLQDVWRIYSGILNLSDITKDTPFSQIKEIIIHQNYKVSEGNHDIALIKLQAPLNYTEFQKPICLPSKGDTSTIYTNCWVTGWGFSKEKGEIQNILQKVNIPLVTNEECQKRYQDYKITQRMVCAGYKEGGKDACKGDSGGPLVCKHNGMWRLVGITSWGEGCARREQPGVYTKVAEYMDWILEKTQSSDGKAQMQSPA
T3 sequence (P03952 20-390 partner limits assumed): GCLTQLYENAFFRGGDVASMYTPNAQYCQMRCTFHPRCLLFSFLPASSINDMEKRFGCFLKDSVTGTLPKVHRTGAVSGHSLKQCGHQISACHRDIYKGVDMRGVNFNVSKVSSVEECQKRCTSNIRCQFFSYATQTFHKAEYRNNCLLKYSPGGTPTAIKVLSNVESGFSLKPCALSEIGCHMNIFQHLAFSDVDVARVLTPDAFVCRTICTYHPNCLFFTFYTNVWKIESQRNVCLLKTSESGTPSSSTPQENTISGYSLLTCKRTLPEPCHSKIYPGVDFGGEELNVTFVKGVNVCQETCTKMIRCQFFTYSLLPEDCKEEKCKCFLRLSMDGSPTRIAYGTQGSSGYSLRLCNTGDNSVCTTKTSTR
The assay is described as follows: Peptidase (amidolytic) activity of purified plasma kallikrein, chromogenic substrate, OD 405 nm. In kind it is biochemical. To be noted: Table 2, plasma kallikrein 20 nM, substrate AGLTR-pNA, 60 min at 4° C. with LBTI 1 mg/ml, SBTI I mg/ml, aprotinin 0.075 mg/ml, benzamidine 50 mM or Futhan 0.1 mg/ml. The method, then: as §1
(§4) […] EDTA plasma samples from LTR were diluted 10 or 20-fold with TBS-EDTA. The chromogenic substrate AGLTR-pNA was used for all enzymes and LTR samples except C1s where the substrate S2288 was used. Based on the initial rate of increase in OD at 405 nm, the residual free enzyme level was calculated and expressed as a percentage of total activity without inhibitor added.
(§5) Ten-fold diluted normal EDTA plasma was added to each enzyme. […] LTR samples were 10 or 20-fold diluted with TBS-EDTA. The chromogenic substrate AGLTR-pNA was used for all enzymes and LTP samples except C1s where the substrate S2288 was used. Based on the initial rate of increase in OD at 405 nm, the residual free enzyme was calculated and expressed as a percentage of total activity determined without inhibitor added.

Another assay has as its target T4, plasmin (Homo sapiens, UniProt P00747).
T4 construct: purchased Calbiochem-Novabiochem Corp (La Jolla, Calif.)
Nature of the assay: Peptidase (amidolytic) activity of purified plasmin, chromogenic substrate, OD 405 nm. In kind it is biochemical. To be noted: Table 2, plasmin 100 nM, substrate AGLTR-pNA, 60 min at 4° C. with LBTI 1 mg/ml, SBTI I mg/ml, aprotinin 0.075 mg/ml, benzamidine 50 mM or Futhan 0.1 mg/ml. The procedure: as §1, §2, §3

In another assay the target is T5, β-Factor XIIa (β-FXIIa) (Homo sapiens, UniProt P00748).
T5 construct: β-Factor XIIa (β-FXIIa) was kindly provided by Dr. Mary J. Heeb; gift of Dr. Mary J. Heeb, The Scripps Research Institute
T5 sequence (P00748 373-615 limits assumed, other chains not shown): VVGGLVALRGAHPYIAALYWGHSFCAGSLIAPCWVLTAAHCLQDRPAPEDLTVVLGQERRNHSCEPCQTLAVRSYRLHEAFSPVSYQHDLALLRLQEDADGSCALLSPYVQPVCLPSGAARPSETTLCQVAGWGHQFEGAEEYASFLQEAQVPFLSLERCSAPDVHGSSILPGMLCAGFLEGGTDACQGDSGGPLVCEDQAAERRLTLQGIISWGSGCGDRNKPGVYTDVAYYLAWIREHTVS
The assay is described as follows: Peptidase (amidolytic) activity of purified β-FXIIa, chromogenic substrate, OD 405 nm. The assay is classed as biochemical. The note with it: Table 2, β-FXIIa 100 nM, substrate AGLTR-pNA, 60 min at 4° C. with LBTI 1 mg/ml, SBTI I mg/ml, aprotinin 0.075 mg/ml, benzamidine 50 mM or Futhan 0.1 mg/ml. The procedure:
as §1, §4, §5

T4 sequence (P00747 581-810 limits assumed, species assumed): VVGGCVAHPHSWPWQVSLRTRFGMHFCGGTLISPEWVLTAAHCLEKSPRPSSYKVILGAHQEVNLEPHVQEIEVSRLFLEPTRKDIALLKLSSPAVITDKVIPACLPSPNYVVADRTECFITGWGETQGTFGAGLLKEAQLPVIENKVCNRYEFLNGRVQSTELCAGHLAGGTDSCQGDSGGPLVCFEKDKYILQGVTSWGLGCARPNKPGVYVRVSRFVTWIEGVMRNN
T4 sequence (P00747 97-580 partner limits assumed, species assumed): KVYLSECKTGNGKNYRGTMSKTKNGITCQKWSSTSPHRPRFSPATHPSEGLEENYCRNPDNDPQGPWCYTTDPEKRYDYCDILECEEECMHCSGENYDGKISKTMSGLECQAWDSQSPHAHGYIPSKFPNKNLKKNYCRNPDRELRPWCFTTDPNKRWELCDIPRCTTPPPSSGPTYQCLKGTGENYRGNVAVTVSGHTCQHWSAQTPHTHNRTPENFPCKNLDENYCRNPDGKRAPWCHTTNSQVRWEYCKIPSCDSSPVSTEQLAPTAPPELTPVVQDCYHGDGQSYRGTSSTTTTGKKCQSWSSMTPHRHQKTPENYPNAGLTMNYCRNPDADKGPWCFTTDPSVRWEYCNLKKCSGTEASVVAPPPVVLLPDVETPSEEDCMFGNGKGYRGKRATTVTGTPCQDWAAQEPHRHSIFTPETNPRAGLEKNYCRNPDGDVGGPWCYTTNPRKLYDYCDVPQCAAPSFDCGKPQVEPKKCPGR

With `N=C(N)c1ccc2cc(OC(=O)c3ccc(N=C(N)N)cc3)ccc2c1` [Futhan, nafamostat mesilate], in the assay on trypsin, the “% Residual activity, Trypsin” value is −0.5%. Besides, in [1], the “% Residual activity, LTR 1” value was −0.7%. Further, in assay [1], the “% Residual activity, LTR 2” value is 0.2%. The “% Residual activity, LTR 3” value in assay [1] is recorded as −1.1%. The “Prevention of in vitro activation of complement in plasma samples, in words” value in assay [2] was “can prevent the in vitro activation of complement by any of the three known pathways”. The “Inhibition of all of the enzymes examined, in words” value in [3] is “very efficient inhibitors for all of the enzymes examined”. Further, the remaining activity at 100 µg/mL on thrombin (read-out: % Residual activity, Thrombin) was 0.8%; on C1s (read-out: % Residual activity, C1s), 4.6%; on plasma kallikrein (read-out: % Residual activity, Plasma Kallikrein), 1.1%; on plasmin (read-out: % Residual activity, Plasmin), -1.5%; at β-Factor XIIa (β-FXIIa) (read-out: % Residual activity, β-FXIIa), 3.8%.

With `N=C(N)c1ccccc1` [Benzamidine, benzamidine], the “% Residual activity, Trypsin” value in the assay on trypsin was found to be 5.8%. Further, in assay [1], the “% Residual activity, LTR 1” value came to 0.5%; the “% Residual activity, LTR 2” value is −0.3%; the “% Residual activity, LTR 3” value worked out at 1.5%. The “Inhibition of all of the enzymes examined, in words” value in assay [3] was “very efficient inhibitors for all of the enzymes examined”. The “% Residual activity, Thrombin” value on thrombin is reported as 1.6%. Further, the “% Residual activity, C1s” value at C1s came to 6.6%. Further, the “% Residual activity, Plasma Kallikrein” value on plasma kallikrein came out at 2.0%. Moreover, the “% Residual activity, Plasmin” value on plasmin stood at 3.9%. Besides, the “% Residual activity, β-FXIIa” value at β-Factor XIIa (β-FXIIa) was found to be 10.9%.

The record behind these values is US20030087316A1, “Diagnostic markers of liver dysfunction” (priority 2001, published 2003).
